The target of assay [1] is T1, Protein tyrosine phosphatase type IVA 1 (Homo sapiens, UniProt Q93096).
T1 sequence (Q93096 whole entry): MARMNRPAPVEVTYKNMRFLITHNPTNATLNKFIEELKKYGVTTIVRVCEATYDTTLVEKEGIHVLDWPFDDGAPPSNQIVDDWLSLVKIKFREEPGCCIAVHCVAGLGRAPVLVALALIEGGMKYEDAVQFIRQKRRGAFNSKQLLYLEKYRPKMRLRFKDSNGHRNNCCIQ
In words: Inhibition of PTP4A1 (unknown origin).

Assay [2] deals with T2, Protein tyrosine phosphatase type IVA 2 (Homo sapiens, UniProt Q12974).
T2 sequence (Q12974 whole entry): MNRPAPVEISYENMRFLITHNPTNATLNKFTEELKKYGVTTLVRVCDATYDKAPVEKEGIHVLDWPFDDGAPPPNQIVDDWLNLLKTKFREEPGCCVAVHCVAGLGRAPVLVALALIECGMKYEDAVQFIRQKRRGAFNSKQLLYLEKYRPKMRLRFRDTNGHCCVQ
Briefly: Inhibition of PTP4A2 (unknown origin).

Assay [3] deals with Protein tyrosine phosphatase type IVA 3 (Homo sapiens, UniProt O75365). In words: Inhibition of PTP4A3 (unknown origin).
Protein tyrosine phosphatase type IVA 3, sequence (O75365 whole entry): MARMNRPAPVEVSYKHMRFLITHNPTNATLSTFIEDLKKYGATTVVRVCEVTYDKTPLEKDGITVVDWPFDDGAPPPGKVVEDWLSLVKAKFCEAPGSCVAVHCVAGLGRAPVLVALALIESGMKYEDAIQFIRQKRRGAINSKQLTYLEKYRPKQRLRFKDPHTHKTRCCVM
For assay [4], the target named is T3, Tyrosine-protein phosphatase non-receptor type 1 (Homo sapiens, UniProt P18031).
T3 sequence (P18031 whole entry): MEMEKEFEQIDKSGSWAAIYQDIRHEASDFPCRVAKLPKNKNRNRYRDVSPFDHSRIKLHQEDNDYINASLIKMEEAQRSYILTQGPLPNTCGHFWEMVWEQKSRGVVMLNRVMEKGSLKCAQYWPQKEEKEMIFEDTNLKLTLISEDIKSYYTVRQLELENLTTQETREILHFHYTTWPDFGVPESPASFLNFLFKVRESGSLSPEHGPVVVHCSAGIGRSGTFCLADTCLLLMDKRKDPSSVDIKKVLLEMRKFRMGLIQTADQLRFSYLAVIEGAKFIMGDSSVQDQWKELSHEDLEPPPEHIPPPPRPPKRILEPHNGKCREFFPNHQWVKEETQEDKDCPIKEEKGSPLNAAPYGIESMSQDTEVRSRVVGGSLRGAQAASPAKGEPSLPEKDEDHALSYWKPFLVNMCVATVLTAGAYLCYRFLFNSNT
In words: Inhibition of human PTP1B assessed as reduction in hydrolysis using DIFMUP as substrate incubated for 30 mins in presence of DTT by Fluorescence based method.

Each structure is given as a SMILES string. A value given as a limit tells only on which side of the number the result lay.

Turning to `N=C(N)c1ccc(OCCCCCOc2ccc(C(=N)N)cc2)cc1` [PENTAMIDINE], the IC50 in assay [1], in assay [2] and in assay [3] was 300 nM throughout.

With `Cc1cc2c(cc1C)CN(c1cccc(C(=O)N/N=C/c3ccc(C(=O)O)cc3)c1)C2`, in assay [1], the IC50 was over 20000 nM.

Turning to `N=C1C(=O)NC(=O)c2cc(-c3ccccc3)sc21`, in assay [4], the IC50 is over 80000 nM.

The IC50 is the concentration that inhibits the measured activity by half.

The values above are taken from ChEMBL document CHEMBL4433263, “Tapping the therapeutic potential of protein tyrosine phosphatase 4A with small molecule inhibitors” (Bioorg Med Chem Lett, 2019).
